Experimental data taken from PubChem BioAssay (NCI).
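1) Cells in 96-well plates. 2) Compound, 48 h, 5 concentrations. 3) Linear interpolation between surrounding doses. 4) Unreached endpoint = highest concentration. GI50 marks 50% less growth. TGI is the concentration that stops growth completely.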

Experiments:
Assay in all cases: NCI-60 cell line screen, 48 h
LOX IMVI melanoma = tested on: LOX IMVI melanoma
RPMI-8226 leukemia = tested on: RPMI-8226 leukemia
M14 melanoma = tested on: M14 melanoma
MDA-MB-231 breast = tested on: MDA-MB-231 breast
HOP-62 NSCLC = tested on: HOP-62 NSCLC
SK-MEL-2 melanoma = tested on: SK-MEL-2 melanoma
COLO 205 colon = tested on: COLO 205 colon
NCI/ADR-RES ovarian = tested on: NCI/ADR-RES ovarian
HCT-15 colon = tested on: HCT-15 colon
EKVX NSCLC = tested on: EKVX NSCLC

| Compound | GI50 (LOX IMVI melanoma) | TGI (LOX IMVI melanoma) | GI50 (RPMI-8226 leukemia) | TGI (RPMI-8226 leukemia) | GI50 (M14 melanoma) | TGI (M14 melanoma) | GI50 (MDA-MB-231 breast) | TGI (MDA-MB-231 breast) | GI50 (HOP-62 NSCLC) | TGI (HOP-62 NSCLC) | GI50 (SK-MEL-2 melanoma) | TGI (SK-MEL-2 melanoma) | GI50 (COLO 205 colon) | TGI (COLO 205 colon) | GI50 (NCI/ADR-RES ovarian) | TGI (NCI/ADR-RES ovarian) | GI50 (HCT-15 colon) | TGI (HCT-15 colon) | TGI (EKVX NSCLC) | GI50 (EKVX NSCLC) |
| --- | --- | --- | --- | --- | --- | --- | --- | --- | --- | --- | --- | --- | --- | --- | --- | --- | --- | --- | --- | --- |
| C=CC[P+](c1ccccc1)(c1ccccc1)c1ccccc1 | 6.53 µM | > 100 µM | 0.675 µM | 32.2 µM | 8.09 µM | > 100 µM | 7.61 µM | > 100 µM | 12.1 µM | > 100 µM | 3.36 µM | 16.4 µM | 2.66 µM | 14.1 µM | > 100 µM | > 100 µM | > 100 µM | > 100 µM |  |  |
| O=[N+]([O-])c1ccc2c(N3CCC(CCCC4CCN(c5ncnc6cc([N+](=O)[O-])ccc56)CC4)CC3)ncnc2c1 | 29.7 µM | > 100 µM | 0.388 µM | 96.9 µM | > 49 µM | > 100 µM | > 47.1 µM | > 100 µM | > 32.2 µM | > 100 µM | > 52.2 µM | > 85.3 µM | 11.5 µM | > 100 µM | 0.658 µM | > 100 µM | > 50.6 µM | > 100 µM |  |  |
| C1C[S][Ge]2([S]CCO1)[S]CCOCC[S]2 |  |  | > 100 µM | > 100 µM | > 100 µM | > 100 µM |  |  | > 100 µM | > 100 µM | > 100 µM | > 100 µM | > 100 µM | > 100 µM |  |  | > 100 µM | > 100 µM |  |  |
| COc1ccc(C(=O)C(C(=O)C(=O)Nc2ccc(Cl)c(Cl)c2)c2ccc(OC)cc2)cc1 (centres undefined) |  | > 100 µM |  | > 100 µM |  | > 100 µM |  |  |  | > 100 µM |  | > 100 µM |  |  |  |  |  | > 100 µM | > 100 µM |  |
| COc1ccc(-c2nn(-c3cccc(NC(=O)c4ccc5c(c4)OCCO5)c3)cc2-c2ccncc2)cc1Cl | 3 µM | 13 µM | 1.36 µM | 6.65 µM | 1.57 µM | 4.28 µM | 2.11 µM | 12.2 µM | 2.94 µM | 20.8 µM | 2.36 µM | 7.15 µM | 1.84 µM | 4.64 µM | 1.01 µM | 4.74 µM | 1.61 µM | 22.5 µM |  |  |
| CC(C)(C)CC(C)(C)c1cc2c(O)c(c1)Cc1cc(C(C)(C)CC(C)(C)C)cc(c1O)Cc1cc(C(C)(C)CC(C)(C)C)cc(c1O)Cc1cc(C(C)(C)CC(C)(C)C)cc(c1O)Cc1cc(C(C)(C)CC(C)(C)C)cc(c1O)Cc1cc(C(C)(C)CC(C)(C)C)cc(c1O)C2 |  |  |  | > 100 µM |  | > 100 µM |  |  |  | > 100 µM |  | > 100 µM |  | > 100 µM |  |  |  | > 100 µM | > 100 µM |  |
| CN(C)CCNC(=O)Cn1cc([N+](=O)[O-])c(=O)c2ccccc21 |  |  |  |  |  | > 100 µM |  | > 100 µM |  | > 100 µM |  | > 100 µM |  | > 100 µM |  | > 100 µM |  | > 100 µM |  |  |
| O=c1cccccc1NCCCCCCNc1cccccc1=O |  | > 100 µM |  | > 100 µM |  | > 100 µM |  |  |  | > 100 µM |  | > 100 µM |  | > 100 µM |  |  |  | > 100 µM | > 100 µM |  |
| O=C1N(c2ccccc2)C(=O)C2(SC=NN2Cc2ccccc2)N1c1ccccc1 (centres undefined) |  | > 100 µM |  |  |  | > 100 µM |  |  |  | > 100 µM |  |  |  | > 100 µM |  |  |  |  | > 100 µM |  |
| CCOc1cc2c(cc1O)/C(=N\O)C[C@@H]1[C@@H]2CC[C@]2(C)[C@@H](O)CC[C@@H]12 | 0.00721 µM | > 63.8 µM |  | 0.0632 µM | 0.041 µM | > 100 µM |  |  |  | > 100 µM |  | 55.6 µM | 0.00176 µM |  |  | > 100 µM |  | > 36.8 µM | > 100 µM | 0.0582 µM |
| CCOC(=O)C1=C(O)CSC1=Nc1ccccc1 |  | > 100 µM |  | > 100 µM |  | > 100 µM |  |  |  | > 100 µM |  | > 100 µM |  | > 100 µM |  |  |  | > 100 µM |  |  |
| CC/C(=C(/CC)c1ccc([O-])cc1)c1ccc([O-])cc1.CC/C(=C(\CC)c1ccc([O-])cc1)c1ccc([O-])cc1.O=C([CH-]C(=O)c1ccccc1)c1ccccc1.O=C([CH-]C(=O)c1ccccc1)c1ccccc1.O=C([CH-]C(=O)c1ccccc1)c1ccccc1.O=C([CH-]C(=O)c1ccccc1)c1ccccc1.[Ti+4].[Ti+4] | 43 µM | > 100 µM | 71.4 µM | > 100 µM | 20.7 µM | 78.8 µM |  |  | 22.5 µM | 51.3 µM | 25.8 µM | 73.5 µM | 37.9 µM | > 100 µM |  |  | 39.4 µM | > 100 µM | > 100 µM | 45.5 µM |
| CN(C)c1ccc(/C=C2\N=C(c3ccc([N+](=O)[O-])cc3)OC2=O)cc1 |  | 61.2 µM |  | > 100 µM |  | > 100 µM |  | > 100 µM |  | > 100 µM |  | > 100 µM |  | > 100 µM |  |  |  | 45.4 µM | > 100 µM |  |
| O=C1OCCC1C(O)C1c2ccccc2-c2ccccc21 (centres undefined) |  |  |  | > 100 µM |  | > 100 µM |  |  |  | > 100 µM |  | > 100 µM |  | > 100 µM |  |  |  |  | > 100 µM |  |
| CC1(C)CCc2cc3c(cc2O1)OCC1c2cc4c(cc2OC31)OCO4 (centres undefined) |  | > 100 µM |  | > 100 µM |  | > 100 µM |  |  |  | > 100 µM |  |  |  | > 100 µM |  |  |  | > 100 µM | > 100 µM |  |
| O=C(c1cc2ccccc2o1)N(Cc1ccccc1)c1ccccc1 |  | 39 µM |  | 49.8 µM |  | 38.9 µM |  |  |  | 71.4 µM |  | > 100 µM |  | 35.4 µM |  |  |  | 41 µM | 78.2 µM |  |
| CC(=O)c1cccc(NC(=O)C(=O)C(C2OC(=O)c3ccccc32)[N+](=O)[O-])c1 (centres undefined) |  | > 100 µM |  | > 100 µM |  | > 100 µM |  |  |  | > 100 µM |  | > 100 µM |  | > 100 µM |  |  |  | > 100 µM | > 100 µM |  |
| Cc1c(C(=O)C/C(=N/NC(=O)C[n+]2ccccc2)C(=O)Nc2ccccc2)[n+](=O)c2ccccc2n1O |  | > 100 µM |  | > 100 µM |  | > 100 µM |  |  |  | > 100 µM |  | > 100 µM |  | > 100 µM |  |  |  | > 100 µM | > 100 µM |  |
| Cc1noc(C)c1-c1cc(O)cc(C(O)c2ccccc2)c1 (centres undefined) | 3.6 µM | 80.5 µM | 1.94 µM | 9.64 µM | 4.48 µM | > 100 µM | 3.92 µM | > 100 µM | 4.89 µM | > 100 µM | 23.5 µM | > 100 µM | 5.25 µM | > 100 µM | 6.32 µM | > 100 µM | 3.52 µM | > 100 µM |  |  |
| COc1c(NC(C)=O)cc(C)cc1NC(C)=O |  | > 100 µM |  | > 100 µM |  | > 100 µM |  |  |  | > 100 µM |  | > 100 µM |  | > 100 µM |  |  |  | > 100 µM | > 100 µM |  |
| CC(=O)O[C@]1(C)OC(=O)[C@@H](C)N1[N+](=O)[O-] |  | > 100 µM |  | > 100 µM |  | > 100 µM |  |  |  | > 100 µM |  | > 100 µM |  | > 100 µM |  |  |  | > 100 µM | > 100 µM |  |
| CCCC[N+](CCCC)=c1ccc2nc3c(C)cc(N(CC)CC)cc3sc-2c1 | 0.146 µM | 1.13 µM | 0.0571 µM | 1.58 µM | 0.338 µM | 1.64 µM | 0.247 µM | 0.849 µM |  |  |  |  |  |  | 0.327 µM | 1.84 µM |  |  |  |  |
| COc1ccc2c(c1)[n+]([O-])c(-c1ccccc1)c(N)[n+]2[O-] |  | > 100 µM |  | > 100 µM |  | 78.9 µM |  |  |  | 96.7 µM |  | > 100 µM |  | 44.4 µM |  |  |  | > 100 µM | > 100 µM |  |
| COC(=O)C1=C(C(=O)OC)C23CC1C1C(C(=O)OC)=C(C(=O)OC)C12C1C=CC3C2C(=O)OC(=O)C21 (centres undefined) |  |  |  | > 100 µM |  | > 100 µM |  |  |  | > 100 µM |  | > 100 µM |  | 64.9 µM |  |  |  | > 100 µM | > 100 µM |  |
| Cn1cc(C2=C(c3cccnc3)C(=O)NC2=O)c2ccccc21 | > 20.9 µM | > 25 µM | > 25 µM | > 25 µM | > 25 µM | > 25 µM | > 23.8 µM | > 25 µM | > 21.9 µM | > 25 µM | > 13 µM | 25 µM | > 18.3 µM | > 25 µM | > 25 µM | > 25 µM | > 25 µM | > 25 µM |  |  |
| O=C1c2ccccc2C(=O)c2c(NCCNCCO)ccc(O)c21 |  | 2.85 µM |  | 11.7 µM |  | 15.8 µM |  |  |  | 14.5 µM |  | 14.7 µM |  | 10.3 µM |  |  |  | 13.7 µM | 14 µM |  |
| CN[C@@H](C)[C@@H](N)c1ccccc1 |  | > 100 µM |  | > 100 µM |  | > 100 µM |  |  |  |  |  |  |  | > 100 µM |  |  |  | > 100 µM | > 100 µM |  |
| C[C@]12CCc3nonc3C1CC[C@@H]1C2CC[C@]2(C)NC(=O)CCC12 (some centres undefined) |  | > 100 µM |  | > 100 µM |  | > 100 µM |  |  |  | > 100 µM |  | > 100 µM |  | > 100 µM |  |  |  | > 100 µM | > 100 µM |  |
| COc1ccc2nc3cc(Cl)ccc3c(N3CCN(c4ccnc(N5CCOCC5)n4)CC3)c2c1 |  |  | 2.92 µM | 10.6 µM | > 100 µM | > 100 µM |  |  | 63.1 µM | > 100 µM | 53.3 µM | > 100 µM | 6.66 µM | > 100 µM | 50.8 µM | > 100 µM | 3.28 µM | > 100 µM |  |  |
